Key:
IGF 3P = target: T1, IGF 3P (Homo sapiens, UniProt P08069); assay: IGF1R kinase assay (LCCA), IGF 3P; assay type: biochemical
T1 construct: human IGF1R kinase domain residues M954-C1367; made in house; host or cells: baculovirus expression (insect cells)
In short: (§1)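 Baculovirus-expressed human IGF1R kinase domain (M954-C1367), 4 nM, with 3 μM ATP and 4 μM poly EY in Tris-HCl pH 7.5 buffer containing MgCl2 and MnCl2, 2 h at ambient temperature. Remaining ATP read by luciferase chemiluminescence; IC50 from 10-point dose-response fitted to a four-parameter equation.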

[1] = target: T2, (Homo sapiens, UniProt P08069); assay: IGF1R kinase assay (LCCA), IGF 0P; assay type: biochemical
T2 construct: human IGF1R kinase domain residues M954-C1367; made in house; host or cells: baculovirus expression (insect cells)
T2 sequence (P08069 954-1367): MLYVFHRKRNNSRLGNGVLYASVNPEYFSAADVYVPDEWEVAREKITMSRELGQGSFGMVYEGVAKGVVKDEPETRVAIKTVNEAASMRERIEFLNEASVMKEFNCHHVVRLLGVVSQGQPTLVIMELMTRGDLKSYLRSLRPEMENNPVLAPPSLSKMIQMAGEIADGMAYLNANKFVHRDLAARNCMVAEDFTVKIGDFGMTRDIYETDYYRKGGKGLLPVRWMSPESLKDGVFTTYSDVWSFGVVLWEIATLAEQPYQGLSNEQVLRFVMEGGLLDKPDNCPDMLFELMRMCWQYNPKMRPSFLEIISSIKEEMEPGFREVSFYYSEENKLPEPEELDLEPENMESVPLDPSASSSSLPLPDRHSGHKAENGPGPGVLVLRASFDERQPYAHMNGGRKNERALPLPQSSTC
In short: as §1

T1 sequence (P08069 954-1367): as above

Row | IC50 (IGF 3P) | IC50 [1] | SMILES
1 | 50 to 500 nM | 50 to 500 nM | CN1CCN(c2cc(Nc3cc(C4CC4)n[nH]3)nc(NCc3cc(-c4ccnc(N)n4)no3)n2)CC1 [Example 660, N^2-{[3-(2-aminopyrimidin-4-yl)isoxazol-5-yl]methyl}-N^4-(3-cyclopropyl-1H-pyrazol-5-yl)-6-(4-methylpiperazin-1-yl)pyrimidine-2,4-diamine]
2 | < 50 nM | 50 to 500 nM | CCN1CCN(c2cc(Nc3cc(C4CC4)n[nH]3)nc(NCc3cc(C(C)C)no3)n2)CC1 [Example 661, N^4-(3-cyclopropyl-1H-pyrazol-5-yl)-6-(4-ethylpiperazin-1-yl)-N^2-{[3-(1-methylethyl)isoxazol-5-yl]methyl}pyrimidine-2,4-diamine]
3 | < 50 nM | 50 to 500 nM | CC(C)c1cc(CNc2nc(Nc3cc(C4CC4)n[nH]3)cc(N3CCC(CCO)CC3)n2)on1 [Example 662, 2-(1-{6-[(3-cyclopropyl-1H-pyrazol-5-yl)amino]-2-({[3-(1-methylethyl)isoxazol-5-yl]methyl}amino)pyrimidin-4-yl}piperidin-4-yl)ethanol]
4 | < 50 nM | 50 to 500 nM | CC(C)c1cc(CNc2nc(Nc3cc(C4CC4)n[nH]3)cc(N3CCN(CCO)CC3)n2)on1 [Example 663, 2-(4-{6-[(3-cyclopropyl-1H-pyrazol-5-yl)amino]-2-({[3-(1-methylethyl)isoxazol-5-yl]methyl}amino)pyrimidin-4-yl}piperazin-1-yl)ethanol]

Reference: patent US8211929B2, “Pyrimidine derivatives as kinase modulators and method of use” (Exelixis, Inc., priority 2004, dated 2012)
